Activity calls are given as the source filed them. Cut-off read from the data, not from the text of the source, for most assays here: actives have a measured EC50 and inactives only a lower limit.
Key:
[1] = target: T1, Replicative DNA helicase DnaB (Mycobacterium tuberculosis, UniProt P9WMR3); experiment: DnaB intein splicing inhibitors, dose response, biochemical, cell-free fluorescence (AID 449749); type: functional
T1 sequence (P9WMR3 whole entry): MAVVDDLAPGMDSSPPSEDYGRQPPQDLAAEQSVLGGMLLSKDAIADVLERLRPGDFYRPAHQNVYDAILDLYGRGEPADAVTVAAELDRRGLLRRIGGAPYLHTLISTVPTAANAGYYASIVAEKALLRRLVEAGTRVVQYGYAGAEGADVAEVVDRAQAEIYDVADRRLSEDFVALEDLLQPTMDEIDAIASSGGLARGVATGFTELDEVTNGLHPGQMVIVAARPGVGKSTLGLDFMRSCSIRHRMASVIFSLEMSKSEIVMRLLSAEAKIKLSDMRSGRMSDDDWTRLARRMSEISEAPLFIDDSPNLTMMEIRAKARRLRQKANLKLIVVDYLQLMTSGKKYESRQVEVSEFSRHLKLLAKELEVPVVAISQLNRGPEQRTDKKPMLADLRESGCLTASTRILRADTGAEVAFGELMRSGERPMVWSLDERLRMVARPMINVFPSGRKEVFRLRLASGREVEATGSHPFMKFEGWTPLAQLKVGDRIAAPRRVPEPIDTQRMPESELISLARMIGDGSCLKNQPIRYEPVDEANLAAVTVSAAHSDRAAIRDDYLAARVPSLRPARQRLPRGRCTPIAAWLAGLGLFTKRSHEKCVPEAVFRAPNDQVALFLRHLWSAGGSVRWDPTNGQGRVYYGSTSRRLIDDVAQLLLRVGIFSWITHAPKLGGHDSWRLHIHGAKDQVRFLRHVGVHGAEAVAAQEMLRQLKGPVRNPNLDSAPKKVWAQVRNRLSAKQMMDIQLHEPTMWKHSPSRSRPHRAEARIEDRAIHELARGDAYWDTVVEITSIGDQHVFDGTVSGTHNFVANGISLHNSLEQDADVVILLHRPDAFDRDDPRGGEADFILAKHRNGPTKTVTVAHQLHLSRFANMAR

[2] = target: T2, Protein RecA (Mycobacterium tuberculosis, UniProt P9WHJ3); experiment: Fluorescence Cell-Free Homogeneous Dose Retest to Identify Inhibitors of RecA-Intein Splicing Activity. [Related pubchem assays (depositor defined):AID2097, AID2223, AID489010, AID492950]; type: functional
T2 sequence (P9WHJ3 whole entry): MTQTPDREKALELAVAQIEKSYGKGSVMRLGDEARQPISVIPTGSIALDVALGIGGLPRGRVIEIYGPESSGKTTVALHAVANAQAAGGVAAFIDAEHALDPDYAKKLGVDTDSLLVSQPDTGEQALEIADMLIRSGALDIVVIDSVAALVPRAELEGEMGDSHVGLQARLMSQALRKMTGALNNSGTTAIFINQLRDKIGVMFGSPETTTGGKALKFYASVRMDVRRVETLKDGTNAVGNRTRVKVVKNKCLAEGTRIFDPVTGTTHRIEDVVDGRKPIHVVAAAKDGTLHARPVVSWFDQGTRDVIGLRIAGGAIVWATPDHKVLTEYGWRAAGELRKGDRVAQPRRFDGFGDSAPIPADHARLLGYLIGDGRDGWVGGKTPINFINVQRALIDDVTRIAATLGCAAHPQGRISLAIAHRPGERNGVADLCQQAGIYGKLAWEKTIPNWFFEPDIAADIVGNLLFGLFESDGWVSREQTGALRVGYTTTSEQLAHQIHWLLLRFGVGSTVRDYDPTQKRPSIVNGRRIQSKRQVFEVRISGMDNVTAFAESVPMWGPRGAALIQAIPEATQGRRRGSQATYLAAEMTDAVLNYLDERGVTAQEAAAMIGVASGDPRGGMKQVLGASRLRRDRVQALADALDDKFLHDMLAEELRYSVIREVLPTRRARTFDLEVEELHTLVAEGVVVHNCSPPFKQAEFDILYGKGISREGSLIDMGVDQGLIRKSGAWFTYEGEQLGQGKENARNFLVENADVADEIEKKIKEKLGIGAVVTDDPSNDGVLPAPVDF

[3] = target: Luciferin 4-monooxygenase (Photinus pyralis, UniProt P08659); experiment: firefly luciferase enzyme inhibitors, dose response, biochemical, luminescence (AID 1891)
[4] = Luminescence Cell-Based Dose Confirmation HTS to Identify Inhibitors of Platelet Dense Granule Release. [Related pubchem assays: 1663 (Primary HTS), 1678 (Summary of Project)]; type: functional
[5] = inhibitors of intracellular T. cruzi replication, confirmation, NIH3T3 host cells, beta-gal luminescence (AID 2044); type: functional, cell-based;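 note: intracellular parasites grown in NIH/3T3 mouse fibroblasts as host cells; luminescent beta-galactosidase reporter signal from transgenic T. cruzi replicating inside host cells; inhibitors lower the luminescence signal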
[6] = cytotoxicity toward NIH3T3 fibroblasts, dose response, counter-screen, cell-based, ATP luminescence, mouse fibroblasts (AID 2010); type: functional;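 note: cells exposed to compound for about 90 hours before reading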
[7] = Luminescence Cell-Based Dose Retest to Confirm Inhibitors of Cancer Stem Cells. [Related pubchem assays (depositor defined):AID2717, AID2721]; type: functional; settings: Homo sapiens
[8] = target: T3, Protein skinhead-1 (Caenorhabditis elegans, UniProt P34707); type: functional
T3 sequence (P34707 whole entry): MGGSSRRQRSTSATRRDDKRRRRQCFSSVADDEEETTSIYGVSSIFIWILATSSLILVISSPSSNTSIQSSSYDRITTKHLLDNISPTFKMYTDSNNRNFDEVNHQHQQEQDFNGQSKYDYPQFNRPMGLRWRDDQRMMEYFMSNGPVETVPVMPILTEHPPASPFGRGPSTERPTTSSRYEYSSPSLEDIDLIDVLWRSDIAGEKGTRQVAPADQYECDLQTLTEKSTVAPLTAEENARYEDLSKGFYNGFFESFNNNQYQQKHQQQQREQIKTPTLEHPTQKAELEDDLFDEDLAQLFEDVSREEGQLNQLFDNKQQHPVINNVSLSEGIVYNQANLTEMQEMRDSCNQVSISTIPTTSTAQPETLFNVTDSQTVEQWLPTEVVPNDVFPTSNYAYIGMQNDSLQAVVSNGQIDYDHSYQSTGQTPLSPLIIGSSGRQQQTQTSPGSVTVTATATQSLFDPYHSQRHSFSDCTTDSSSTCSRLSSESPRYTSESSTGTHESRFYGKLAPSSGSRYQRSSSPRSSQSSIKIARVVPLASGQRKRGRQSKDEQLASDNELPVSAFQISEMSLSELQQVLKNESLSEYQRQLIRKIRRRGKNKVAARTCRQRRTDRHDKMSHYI

[9] = target: T4, Rac GTPase-activating protein 1 (Homo sapiens, UniProt Q9H0H5); experiment: MgcRacGAP GTPase-activating activity inhibitors, confirmation, biochemical, ADP Hunter fluorescence, primary and confirmatory (AID 624330); type: functional
T4 sequence (Q9H0H5 whole entry): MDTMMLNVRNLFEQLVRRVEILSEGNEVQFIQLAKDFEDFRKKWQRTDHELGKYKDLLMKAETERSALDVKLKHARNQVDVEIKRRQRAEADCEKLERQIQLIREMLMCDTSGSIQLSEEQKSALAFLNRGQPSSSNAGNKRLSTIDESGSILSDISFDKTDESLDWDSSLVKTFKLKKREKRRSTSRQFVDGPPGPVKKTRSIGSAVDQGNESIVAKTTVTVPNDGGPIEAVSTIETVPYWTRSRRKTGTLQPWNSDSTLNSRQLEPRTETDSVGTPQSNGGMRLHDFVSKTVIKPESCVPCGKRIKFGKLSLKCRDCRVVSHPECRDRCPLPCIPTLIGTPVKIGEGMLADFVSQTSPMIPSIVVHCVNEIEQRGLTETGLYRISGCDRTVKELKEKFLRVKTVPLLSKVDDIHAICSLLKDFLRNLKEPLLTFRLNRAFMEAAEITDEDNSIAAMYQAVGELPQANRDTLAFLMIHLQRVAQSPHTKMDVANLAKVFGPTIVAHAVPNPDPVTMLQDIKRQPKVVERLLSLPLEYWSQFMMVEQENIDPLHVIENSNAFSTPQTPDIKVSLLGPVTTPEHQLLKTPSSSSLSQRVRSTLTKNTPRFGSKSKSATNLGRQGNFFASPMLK

Chain of Luciferin 4-monooxygenase (P08659 whole entry): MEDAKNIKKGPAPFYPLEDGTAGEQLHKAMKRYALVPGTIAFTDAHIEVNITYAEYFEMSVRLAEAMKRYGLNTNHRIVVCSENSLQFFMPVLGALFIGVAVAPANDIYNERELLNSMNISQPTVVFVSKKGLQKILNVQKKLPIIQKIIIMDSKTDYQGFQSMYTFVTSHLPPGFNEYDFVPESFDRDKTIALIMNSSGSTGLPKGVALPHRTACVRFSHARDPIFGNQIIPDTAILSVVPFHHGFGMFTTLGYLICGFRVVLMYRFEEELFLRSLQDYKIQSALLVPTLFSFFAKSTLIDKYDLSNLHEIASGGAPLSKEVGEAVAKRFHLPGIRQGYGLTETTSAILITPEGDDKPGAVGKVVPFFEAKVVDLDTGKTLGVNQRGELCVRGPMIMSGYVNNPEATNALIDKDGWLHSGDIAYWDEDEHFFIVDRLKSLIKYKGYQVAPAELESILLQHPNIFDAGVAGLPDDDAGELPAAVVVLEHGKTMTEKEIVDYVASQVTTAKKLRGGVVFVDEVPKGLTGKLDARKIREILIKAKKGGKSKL

SMILES	AC50 [1]	EC50 [2]	IC50 [8]	further results
COCC(C)NC(=O)CCS(=O)(=O)c1nc(-c2ccc(OC)cc2)cc(C(F)(F)F)n1 (stereo unspecified)	12.5 µM (active)	6.72 µM (active)		
O=C(/C=C/c1ccc([N+](=O)[O-])cc1)NCc1cccs1				EC50 [3]: > 112 µM (not active); EC50 [4]: 57.2 µM (active)
COc1ccc(CC(=O)N/N=C(/C)CC(=O)N(C)c2ccccc2)cc1	29.3 µM (active)	9.23 µM (active)		
Cn1cnc([N+](=O)[O-])c1Oc1ccc2ccccc2c1	31.9 µM (active)	12.7 µM (active)		
Cc1ccc(S(=O)(=O)/N=C(\c2ccc(F)cc2)n2c(C)nc3ccccc32)cc1				EC50 [3]: > 112 µM (not active); EC50 [4]: > 112 µM (not active)
CCOC(=O)CSc1nc2sc3c(c2c(=O)n1C1CCCCC1)CCN(C)C3	> 380 µM (inactive)	15.2 µM (active)		EC50 [5]: 1.43 µM (active); EC50 [6]: > 30 µM (not active)
CCCCCN(C(=O)CCC(=O)OCC(=O)N1C(C)CCCC1C)c1c(N)n(CCCC)c(=O)[nH]c1=O (stereo unspecified)				EC50 [3]: > 112 µM (not active); EC50 [4]: > 112 µM (not active)
N#CC(C#N)=C(C#N)c1ccc(Nc2ccccc2)cc1	> 380 µM (inactive)	2.49 µM (active)		AC50 [7]: 2.54 µM (active)
Cc1ccc(-c2nc3ccc(Br)cn3c2Cc2ccccc2C(F)(F)F)cc1			75.5 µM (inactive)	
COc1ccc(-c2[nH]nc3c2C(c2ccccc2OC(=O)N2CCOCC2)C(C#N)=C(N)O3)cc1 (stereo unspecified)	11.2 µM (active)	3.91 µM (active)		
COc1ccc(-c2nc(C[S+]([O-])CC(=O)NCc3ccco3)c(C)o2)cc1 (stereo unspecified)				EC50 [3]: > 112 µM (not active); EC50 [4]: 27.9 µM (active)
Cc1ccc(Cl)c(OCC(=O)Nc2ccccc2C(=O)NC2CC2)c1				EC50 [3]: > 112 µM (not active); EC50 [4]: > 112 µM (not active)
CN(C)C(CNC(=O)c1cccc(S(=O)(=O)N2CCN(c3ccc(F)cc3)CC2)c1)c1ccccc1 (stereo unspecified)			63.4 µM (inactive)	
COc1cccc(-n2cnnn2)c1			> 100 µM (inactive)	
CCCc1n[nH]c2c1C(c1ccc(OC(=O)c3ccco3)cc1)C(C#N)=C(N)O2 (stereo unspecified)	3.41 µM (active)	5.22 µM (active)		
O=C(Nc1ccccc1Cl)c1cc(C2CCCN(C(=O)OCCF)C2)on1 (stereo unspecified)			> 100 µM (inactive)	
COc1cc2c(cc1OC)[C@@H](NC(=O)CCc1ccccc1)[C@H](OCc1ccccc1)C2			> 100 µM (inactive)	

SMILES	AC50 [1]	EC50 [2]	IC50 [8]	further results
CCOc1cc(/C=C2\C(=N)N3N=C(N4CCCCC4)SC3=NC2=O)ccc1OC(=O)c1ccco1	> 380 µM (inactive)	18.6 µM (active)		
Cc1onc(-c2c(F)cccc2Cl)c1C(=O)Nc1nc2ccccc2[nH]1			> 100 µM (inactive)	
Cn1nc(C(=O)Nc2nc3ccc(S(C)(=O)=O)cc3s2)ccc1=O				EC50 [3]: 3.18 µM (active); EC50 [4]: 7.45 µM (active)
Cc1ccc2c(c1)c1nnc(SCC(=O)Nc3ccc(N(C)C)cc3)nc1n2CC(=O)O	92.5 µM (active)	0.483 µM (active)		
Cc1cccc(CCNC(=O)c2cc(S(=O)(=O)N3CCCC3)cn2C)c1				EC50 [3]: > 112 µM (not active); EC50 [4]: > 112 µM (not active)
Cc1ccc2c(c1)COc1c3ccc(C(=O)N4CCOCC4)cc3nn1-2				EC50 [3]: 29.6 µM (active); EC50 [4]: 20.9 µM (active)
c1ccc(OCc2cc(-c3ccccc3)no2)cc1			68.7 µM (inactive)	
Cc1cc(NC(=O)CSCC(=O)Nc2ccccc2N2CCCCC2)no1				EC50 [3]: > 112 µM (not active); EC50 [4]: > 112 µM (not active)
Brc1ccc(-c2nc(-c3ccccc3)no2)o1			14.1 µM (active)	
CCc1ccc(NC(=O)CSc2ccc(-c3sc(C)nc3C)nn2)cc1	278 µM (active)	> 380 µM (inactive)		
CCOC(=O)/C(C#N)=C\c1ccc(O)c(OC)c1	27.2 µM (active)	9.54 µM (active)		IC50 [9]: 48.9 µM (active)
COC(=O)C1C2CC3c4[nH]c5cc(OC)ccc5c4CCN3CC2CC(OC(=O)CC(C)=O)C1OC (stereo unspecified)			> 100 µM (inactive)	
O=C(NC1CCCC1)C(c1ccc(F)cc1)N(Cc1ccc(Cl)cc1)C(=O)CCl (stereo unspecified)	9.46 µM (active)	0.965 µM (active)		
CN1CCN2c3ccc(N)cc3CC3(C(=O)NC(=O)NC3=O)C2C1 (stereo unspecified)	147 µM (active)	39.5 µM (active)		
CC(=O)c1cnc2c(-c3ccc(Cl)cc3)c(C)nn2c1C				EC50 [3]: > 112 µM (not active); EC50 [4]: 78.7 µM (active)
O=C1NC[C@H](Cc2ccccc2)N(C[C@@H]2CCCN2C[C@H](Cc2ccc(O)cc2)N2C[C@H](Cc3ccccc3)N(CC3CCCCCC3)C(=O)C2=O)C1=O			> 100 µM (inactive)	
C(/C=C/c1ccccn1)=C\c1ccccc1			50.8 µM (inactive)	
